Laboratory results taken from PubChem BioAssay (NCI).
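Protocol summary: plate cells (96-well), add compound at 5 concentrations, incubate 48 h, interpolate endpoints linearly. Here, GI50 denotes the concentration required for 50% inhibition of growth. At the TGI there is no net growth.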

How the values were obtained:
Assay in all cases: NCI anticancer screen, dose series, 48 h
MDA-N = system: MDA-N
M14 melanoma = system: M14 melanoma
SNB-78 CNS = system: SNB-78 CNS
M19-MEL melanoma = system: M19-MEL melanoma
DMS 273 small cell lung = system: DMS 273 small cell lung
XF 498 CNS = system: XF 498 CNS
HOP-18 NSCLC = system: HOP-18 NSCLC
DLD-1 colon = system: DLD-1 colon
DMS 114 small cell lung = system: DMS 114 small cell lung
KM20L2 colon = system: KM20L2 colon
LXFL 529 NSCLC = system: LXFL 529 NSCLC
RXF-631 renal = system: RXF-631 renal

Row | Compound | TGI (M14 melanoma) [µM] | GI50 (M14 melanoma) [µM] | TGI (SNB-78 CNS) [µM] | TGI (M19-MEL melanoma) [µM] | TGI (HOP-18 NSCLC) [µM] | TGI (DLD-1 colon) [µM] | TGI (LXFL 529 NSCLC) [µM] | other results
1 | CCCCCCCCCCCCNC(C)=O | 32.6 |  |  |  |  |  |  | TGI (MDA-N): 31 µM
2 | Nc1ccc2c(c1)C(=O)C(=O)c1c-2nc2ccccn12 | 0.741 | 0.281 |  |  |  |  |  | 
3 | COc1cc2c(cc1O)CC[C@@H]1[C@@H]2CC[C@]2(C)[C@@H](NCCN(C)C)CC[C@@H]12 | 0.213 | 0.0822 |  |  |  |  |  | 
4 | OC1[C@H]([C@H]2CCCC[C@@H]2O)CCC[C@@H]1[C@@H]1CCCC[C@H]1O (stereo partly specified) | > 100 |  | > 100 | > 100 | > 100 | > 100 | > 100 | TGI (DMS 273 small cell lung): > 100 µM; TGI (XF 498 CNS): > 100 µM; TGI (DMS 114 small cell lung): > 100 µM; TGI (KM20L2 colon): > 100 µM
5 | Cc1ccc(S(=O)(=O)OC2CCN(C)CC2)cc1 | > 100 |  |  |  |  |  |  | TGI (MDA-N): > 100 µM
6 | CCNC(=O)[C@@H]1CCCN2C(=O)CC[C@H](NC(=O)[C@H](Cc3ccc(OP(=O)(O)O)cc3)NC(C)=O)C(=O)N12 | > 25 | > 25 |  |  |  |  |  | 
7 | CCN(CC)CCOCC[C@H]1CC[C@H]2[C@@H]3[C@H](C)Cc4cc(OS(N)(=O)=O)ccc4[C@H]3CC[C@]12C | 2.59 | 1.26 |  |  |  |  |  | 
8 | Cc1c(N2CCCC2)cc2c(c1NC(=O)c1ccccc1Cl)C(C)(C)CC2(C)C | 26.8 |  |  |  |  |  |  | TGI (MDA-N): 28.5 µM
9 | COc1cc(NS(C)(=O)=O)ccc1Nc1c2ccc([N+](=O)[O-])cc2nc2c(C)cccc12 | 11.2 | 0.228 |  |  |  |  |  | 
10 | OC(c1cccc(-n2ccc(C(F)(F)F)n2)c1)c1cnccc1NC1CCCCCC1 (stereo unspecified) | 3.29 | 1.78 |  |  |  |  |  | 
11 | CC1CC[C@]2(C(=O)O)CCC3(COC(=O)/C=C\c4ccc(O)cc4)C(=CCC4[C@@]5(C)CC[C@H](O)C(C)(C)C5CC[C@]43C)[C@@H]2[C@H]1C (stereo partly specified) | 37.7 |  | > 100 | 50.8 | 69.8 | 30.8 | > 100 | TGI (DMS 273 small cell lung): 50.3 µM; TGI (RXF-631 renal): 77.9 µM; TGI (DMS 114 small cell lung): > 100 µM; TGI (KM20L2 colon): 33.6 µM
12 | F | 5900 | 2260 |  |  |  |  |  | 
13 | C/C(=N\NC(=O)c1sc(=S)n(C)c1N)c1cc2ccccc2o1 | 40.5 | 14.7 |  |  |  |  |  | 
14 | CN(Cc1cnc2nc(N)nc(N)c2n1)c1ccc(C(=O)NC(CCC(=O)O)C(=O)O)cc1C(F)(F)F (stereo unspecified) | > 100 |  |  |  |  |  |  | 
15 | N#Cc1c(-c2ccccc2)nc(SCC2CO2)nc1N1CCOCC1 (stereo unspecified) | > 100 | 13.4 |  |  |  |  |  | 
16 | CCc1nc(N)nc(N)c1-c1ccc(NCCN)c([N+](=O)[O-])c1 | 75.5 |  |  |  |  |  |  | TGI (MDA-N): > 100 µM
17 | CC12CCC3C(CCC4Cc5[nH]c6ccccc6c5CC43C)C1CCC2O (stereo unspecified) | > 19.8 | 0.753 |  |  |  |  |  | 

Row | Compound | TGI (M14 melanoma) [µM] | GI50 (M14 melanoma) [µM] | TGI (SNB-78 CNS) [µM] | TGI (M19-MEL melanoma) [µM] | TGI (HOP-18 NSCLC) [µM] | TGI (DLD-1 colon) [µM] | TGI (LXFL 529 NSCLC) [µM] | other results
18 | CN1N=CSC12C(=O)N(c1ccc(Cl)cc1)C(=O)N2c1ccc(Cl)cc1 (stereo unspecified) | > 100 |  | > 100 | > 100 | 69.7 | > 100 | > 100 | TGI (KM20L2 colon): > 100 µM
19 | O=[N+]([O-])c1ccc(S(=O)(=O)Cc2ccccc2)c([N+](=O)[O-])c1 | 3.37 |  |  |  |  |  |  | TGI (MDA-N): 4.09 µM
20 | CC(C)(C)NNC(=O)/C(=C/c1ccc([N+](=O)[O-])cc1)NC(=O)c1ccccc1 | > 100 |  | > 100 | > 100 | > 100 | > 100 | > 100 | TGI (DMS 273 small cell lung): 80 µM; TGI (XF 498 CNS): > 100 µM; TGI (DMS 114 small cell lung): 35.9 µM; TGI (KM20L2 colon): > 100 µM
21 | Cn1cc(-c2ccc3c(Nc4cccc(NC(=O)Nc5cccc(F)c5)c4)ncnc3c2)cn1 | 14.9 | 2.61 |  |  |  |  |  | 
22 | CC(=O)NCCc1c2c(c3nccc4c3c1Nc1ccccc1-4)OCS2 | 4.57 | 1 |  |  |  |  |  | GI50 (MDA-N): 1450 nM; TGI (MDA-N): 15.5 µM
23 | Cc1cc(N(CCC#N)CCC#N)ccc1/C=C1N=C(/C=C\c2ccccc2)OC\1=O | > 100 |  | > 100 | > 100 | > 100 | > 100 | > 100 | TGI (DMS 273 small cell lung): > 100 µM; TGI (XF 498 CNS): > 100 µM; TGI (DMS 114 small cell lung): > 100 µM; TGI (KM20L2 colon): > 100 µM
24 | NC(=O)NNCc1ccccc1 | > 100 |  |  |  |  |  |  | TGI (MDA-N): > 100 µM
25 | Clc1ccc(CSC(Cn2ccnc2)c2ccc(Cl)cc2Cl)cc1 (stereo unspecified) | 3.12 | 1.69 |  |  |  |  |  | 
26 | CC(C)(C)OC1=C(OC(C)(C)C)C(O)(c2ccccc2)C1=O (stereo unspecified) | > 100 |  | > 100 | > 100 | > 100 | > 100 | > 100 | TGI (DMS 273 small cell lung): > 100 µM; TGI (RXF-631 renal): > 100 µM; TGI (DMS 114 small cell lung): > 100 µM
27 | O=C(Nc1ccc(Cl)c(Cl)c1)c1cccc(NC2=C(Cl)C(=O)N(Cc3ccccc3)C2=O)c1 | > 100 | 66 |  |  |  |  |  | 
28 | COc1ccc(-c2cc(-c3cc(Cl)ccc3Cl)nc3n[nH]c(N)c23)cc1 | > 100 | 29.5 |  |  |  |  |  | 
29 | C[N+](C)(C)CC1CCCC/C1=N\OC(=O)c1ccccc1 (stereo unspecified) | > 100 |  | > 100 | > 100 | > 100 | > 100 | > 100 | TGI (DMS 273 small cell lung): > 100 µM; TGI (RXF-631 renal): > 100 µM; TGI (DMS 114 small cell lung): > 100 µM; TGI (KM20L2 colon): > 100 µM
30 | CC[C@]12CCCN3CCc4c(n(c5ccccc45)C(=O)C1)[C@@H]32 | > 65.5 |  |  |  |  |  |  | TGI (MDA-N): 4.79 µM
31 | CN1C(=O)CC(c2cccc(C3CC(=O)N(C)C3=O)n2)C1=O (stereo unspecified) | > 100 |  | > 100 | > 100 | > 100 | > 100 | > 100 | TGI (DMS 273 small cell lung): > 100 µM; TGI (DMS 114 small cell lung): > 100 µM; TGI (KM20L2 colon): > 100 µM
32 | O=C(Nc1c(O)[nH]c(=S)[nH]c1=O)c1ccccc1F | > 100 |  | > 100 | > 100 | > 100 | > 100 | > 100 | TGI (RXF-631 renal): > 100 µM; TGI (DMS 114 small cell lung): > 100 µM; TGI (KM20L2 colon): > 100 µM
33 | COc1cccc2c1C(=O)C=CC2=O | 20.7 |  | 9.3 | 16.1 | 23.6 | 39 | 6.37 | TGI (DMS 273 small cell lung): 30.8 µM; TGI (XF 498 CNS): 5.25 µM; TGI (DMS 114 small cell lung): 10.3 µM; TGI (KM20L2 colon): 30.6 µM
